Data from publication PMC11794875, “Molecular basis for azetidine-2-carboxylic acid biosynthesis” (Nature Communications, 2025).
Like-named read-outs stand apart in the source and are kept apart here.

Key:
AzeJ [1] = target: T1, AzeJ (Pseudomonas aeruginosa, UniProt Q9HYR0); experiment: X-ray crystal structure, […] Å; assay type: binding; details: co-crystallised with 2 mM SAM, pH 7.0 or 7.2, formed in crystal, active site
T1 construct: gene PA3335; N-terminal His6-SUMO fusion in pETDuet, codon-optimised, SUMO tag cleaved by Ulp1; E. coli BL21 Gold (DE3); homodimer
T1 sequence (Q9HYR0 entry or part of it): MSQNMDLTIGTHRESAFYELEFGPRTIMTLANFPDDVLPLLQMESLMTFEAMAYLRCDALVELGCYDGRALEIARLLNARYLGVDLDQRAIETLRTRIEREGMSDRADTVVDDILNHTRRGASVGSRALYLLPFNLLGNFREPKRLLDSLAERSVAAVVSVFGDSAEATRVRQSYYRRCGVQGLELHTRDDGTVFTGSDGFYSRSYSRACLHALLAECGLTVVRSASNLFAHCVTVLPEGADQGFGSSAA

AzeJ [2] = target: T1, AzeJ; assay type: binding; details: 100 mM Tris-HCl, pH 8.0, 10 µM protein
VioH = target: T2, VioH (Archangium violaceum, UniProt Z9G018KSM0); experiment: in vitro AZE synthase activity assay, HPLC; assay type: biochemical; details: without VioG partner
T2 construct: N-terminal His6-SUMO fusion in pETDuet, codon-optimised, SUMO tag cleaved by Ulp1; E. coli BL21 Gold (DE3); monomer
T2 sequence (Z9G018KSM0 1-236): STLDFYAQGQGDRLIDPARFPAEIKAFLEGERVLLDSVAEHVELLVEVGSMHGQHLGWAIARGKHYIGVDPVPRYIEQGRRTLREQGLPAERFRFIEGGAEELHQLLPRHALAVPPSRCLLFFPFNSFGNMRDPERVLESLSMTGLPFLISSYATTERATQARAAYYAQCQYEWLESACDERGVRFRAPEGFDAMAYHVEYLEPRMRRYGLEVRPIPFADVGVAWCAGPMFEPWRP

Question: For O=C(O)[C@@H]1CCN1 [AZE, azetidine-2-carboxylic acid], which “X-ray crystal structure, 1.95 Å” value (AzeJ [1]; with MTA) is on record?
Answer: The value was “Fo-Fc electron density maps reveal that MTA and AZE are bound to the active site”.

Question: With CSC[C@H]1O[C@@H](n2cnc3c(N)ncnc32)[C@H](O)[C@@H]1O [MTA, 5′-methylthioadenosine] as the molecule, how does the “X-ray crystal structure, 1.95 Å” value (AzeJ [1]; with AZE) read?
Answer: The value was “Fo-Fc electron density maps reveal that MTA and AZE are bound to the active site”.

Question: Which dTm (AzeJ [2]; 0–1 mM SAM) does the source give for C[S+](CC[C@H](N)C(=O)O)C[C@H]1O[C@@H](n2cnc3c(N)ncnc32)[C@H](O)[C@@H]1O (some centres unmarked) [SAM, S-adenosylmethionine] here?
Answer: The dTm was “In the presence of SAM or SAH, the melting temperature of AzeJ increased”.

Question: And the “in vitro AZE synthase activity assay, HPLC” value (VioH)?
Answer: The value was “in vitro observation that VioH alone had minimal catalytic activity (Fig. S8)”.

Question: With Nc1ncnc2c1ncn2[C@@H]1O[C@H](CSCC[C@H](N)C(=O)O)[C@@H](O)[C@H]1O [SAH, S-adenosyl-L-homocysteine] as the molecule, how does the dTm (AzeJ [2]; 0–1 mM SAH) read?
Answer: Its dTm is “In the presence of SAM or SAH, the melting temperature of AzeJ increased”.
